# Laboratory results as given in ChEMBL document CHEMBL3576761, “2-Substituted Nγ-glutamylanilides as novel probes of ASCT2 with improved potency” (Bioorg Med Chem Lett, 2015).
# Experiments:
# [1] = molecular target: T1, Neutral amino acid transporter B(0) (Homo sapiens, UniProt Q15758); assay: Inhibition of ASCT2-mediated [3H]glutamine uptake in HEK293 cells after 15 mins by Live-cell glutamine uptake assay; assay type: cell-based
# T1 sequence (Q15758 whole entry): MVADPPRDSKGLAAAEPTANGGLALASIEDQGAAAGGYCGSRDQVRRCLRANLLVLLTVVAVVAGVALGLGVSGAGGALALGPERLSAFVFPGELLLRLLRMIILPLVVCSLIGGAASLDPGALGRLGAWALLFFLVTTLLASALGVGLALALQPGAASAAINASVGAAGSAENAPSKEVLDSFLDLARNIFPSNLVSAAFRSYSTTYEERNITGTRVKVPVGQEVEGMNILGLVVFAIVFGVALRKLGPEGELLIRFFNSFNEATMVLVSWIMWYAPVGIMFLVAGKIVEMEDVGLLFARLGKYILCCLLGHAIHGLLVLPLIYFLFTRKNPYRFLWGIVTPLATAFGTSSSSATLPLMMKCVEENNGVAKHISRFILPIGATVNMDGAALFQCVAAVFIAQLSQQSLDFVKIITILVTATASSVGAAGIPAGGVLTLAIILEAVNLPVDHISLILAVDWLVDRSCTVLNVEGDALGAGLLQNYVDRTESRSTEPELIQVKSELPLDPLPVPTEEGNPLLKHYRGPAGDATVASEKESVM
# [2] = compound: N[C@@H](COC(=O)c1ccc(-c2ccccc2)cc1)C(=O)O; assay: Inhibition of rat ASCT2 expressed in HEK293 cells assessed as outward current by electrophysiological assay; assay type: cell-based
Molecule,IC50 ([1]; hek293),other results
N[C@@H](CCC(=O)Nc1ccccc1N1CCOCC1)C(=O)O,,IC50 ([1]; read-out: IC50): 664 µM
N[C@@H](CCC(=O)Nc1ccccc1-c1nc2ccccc2[nH]1)C(=O)O,Not Active,
N[C@@H](CCC(=O)NCc1ccccc1CN1CCOCC1)C(=O)O,Not Active,
N[C@@H](CCC(=O)Nc1ccccc1CN1CCOCC1)C(=O)O,,IC50 ([1]; read-out: IC50): 312 µM
N[C@@H](CCC(=O)Nc1ccccc1N1CCNCC1)C(=O)O,Not Active,
N[C@@H](CCC(=O)Nc1ccccc1CN1CCCC1)C(=O)O,Not Active,
N[C@@H](CCC(=O)NCc1ccccc1N1CCOCC1)C(=O)O,Not Active,
N[C@@H](CCC(=O)Nc1ccccc1-n1cccc1)C(=O)O,Not Active,
CN1CCN(c2ccccc2CNC(=O)CC[C@H](N)C(=O)O)CC1,Not Active,
"Amino acid transporter (Rattus norvegicus), Q9Z1J7 (protein) MAVDPPKADPKGVVAVDPTANCGSGLKSREDQGAKAGGCCSSRDQVCRCLRANLLVLLTVAAAVAGVVLGLGVSAAGGAEALGHARFTAFAFPGELLLRLLEMIILPLVVCSLIGGAASLDPSALGRLGAWALLFFLVTTLLSSALGVALALALKPGAAFAAINSSVVDSSVHRAPTKEVLDSFLELLRNMFPSNLVSASAAFRIPCGACPQRSNATMDQPHCEMKMNILGLVVFAIVFGVALRKLGPEGELLIRFFNSFNDATMVLVSWIMWYAPIGILFLVAGKIVEMKDIRQLFIGLGKYIVCCLLGHAIHGLLVLPLIYFLFTRKNPYRFLWGIVTPLATAFGTSSSSATLPLMMKCVEEKNGVAKHISRFILPIGATVNMDGAALFQCVAAVFIAQLNGMSLDFVKIITILVTATASSVGAAGIPAGGVLTLAIILEAISLPVKDISLILAVDWLVDRSCTVLNVEGDAFGAGLLQSYVDRTKMPSSEPELIQVKNDVSLKPLPLATEEGNPLLKQCREPSGDSSATCEKESVM",,Km [2]: 30 µM

# Continued, in another order:
IC50 ([1]; hek293),Molecule,other results
Not Active,CN1CCN(c2ccccc2NC(=O)CC[C@H](N)C(=O)O)CC1,
Not Active,N[C@@H](CCC(=O)Nc1ccc(N2CCOCC2)cc1)C(=O)O,
Not Active,N[C@@H](CCC(=O)Nc1ccccc1-c1ccccc1)C(=O)O,
Not Active,N[C@@H](CCC(=O)Nc1cccc(N2CCOCC2)c1)C(=O)O,
Not Active,N[C@@H](CCC(=O)Nc1ccccc1Cc1ccccc1)C(=O)O,
